Test results reported in publication PMC9986241 (Signal Transduction and Targeted Therapy, 2023).

Key:
[1] = biological target: T1, Bmx(h) (Homo sapiens, UniProt P51813); assay: KinaseProfiler enzyme profiling; type: biochemical
T1 construct: purchased Eurofins KinaseProfiler
Outline: (§1)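 Panel profiling of erianin at 100 nM over 70 kinases in vitro, performed with 2 repetitions.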

[2] = biological target: T2, CK1γ3(h) (Homo sapiens, UniProt Q9Y6M4); assay: KinaseProfiler enzyme profiling; type: biochemical
T2 construct: purchased Eurofins KinaseProfiler
Outline: as §1

[3] = biological target: T3, MKK4(m) (Mus musculus, UniProt P47809); assay: KinaseProfiler enzyme profiling; type: biochemical
T3 construct: purchased Eurofins KinaseProfiler
Outline: as §1

[4] = biological target: T4, DYRK2(h) (Homo sapiens, UniProt Q92630); assay: KinaseProfiler enzyme profiling; type: biochemical
T4 construct: purchased Eurofins KinaseProfiler
Outline: as §1

[5] = system: CK1(y); assay: KinaseProfiler enzyme profiling; type: biochemical, yeast; details: 10 µM
From the text: Enzyme profiling services were provided by KinaseProfiler™ (Eurofin, Brussels, Belgium). […] For more details, refer to the manufacturer’s instructions (www.eurofinsdiscoveryservices.com).

[6] = system: SK-MEL-2, A375, SK-MEL-28, and HCT 116 cells; assay: Anchorage-independent cell growth assay; type: cell-based, human; details: both BRAF and RAS mutant cell lines
Experimental: (§2) The synergism and antagonism (CI value) were determined and analyzed using CompuSyn 1.0.

[7] = biological target: T5, CRAF (Homo sapiens, UniProt P04049, Y340E/Y341E); assay: Luminescent ADP detection (ADP-glo kinase) assay; type: biochemical; details: 1–100 nM
T5 construct: purchased Signal Chem R01-13G
Experimental: (§3) After incubated with 100–400 μM ATP in kinase assay buffer for 30 min, the phosphorylation of the substrate/total substrate protein was detected by western blotting. For ADP-glo kinase assay, unconsumed ATP was depleted with the addition of ADP-Glo™. Followed by kinase detection reagent to convert ADP to ATP, consumption of ATP was detected to evaluate the kinase activity. For more details, refer to the manufacturer’s instructions of ADP-Glo™ Kinase Assay.

[8] = biological target: MEK2 (Homo sapiens, UniProt P36507); assay: Luminescent ADP detection (ADP-glo kinase) assay; type: biochemical; details: 1–100 nM
Experimental: as §3

[9] = biological target: MEK1 (Homo sapiens, UniProt Q02750); assay: Luminescent ADP detection (ADP-glo kinase) assay; type: biochemical; details: 1–100 nM
Experimental: as §3

[10] = biological target: MEK1 full length (Homo sapiens, UniProt Q02750); assay: ITC assay; type: binding; details: PBS (0.1% DMSO, pH = 7.4), read-out: affinity (Kd)
Experimental: (§4) 293 T cells were transfected with plasmids of pcDNA3.1-3×Flag-C-MAP2K1/MAP2K1 (K97A, M146A), MAP2K2/MAP2K1 (K101A, M150A), or CRAF/CRAF (K375A). […]
(§5) The ITC experiment was performed on a MicroCal PEAQ-ITC. […] All proteins and erianin were diluted with PBS (0.1% DMSO, pH = 7.4), and deionized water was injected into the reference cell as a heat balance control. After 19 times titrations of erianin into the sample cell at a constant rate of 150 s, the titration curve was fitted with nonlinear least squares estimation model using Microcal ORIGIN V7.0.

[11] = biological target: T6, CRAF (306-end) (Homo sapiens, UniProt P04049); assay: ITC assay; type: binding; details: PBS (0.1% DMSO, pH = 7.4), read-out: affinity (Kd)
T6 construct: purchased
Experimental: as §4, §5

[12] = biological target: MEK2 full length (Homo sapiens, UniProt P36507); assay: ITC assay; type: binding; details: PBS (0.1% DMSO, pH = 7.4), read-out: affinity (Kd)
Experimental: as §4, §5

[13] = system: MAPK signaling pathway (phospho-CRAF, phospho-MEK1/2, phospho-ERK1/2); assay: Western blotting of MAPK signaling pathway in cells; details: both BRAF V600E and RAS mutant cell lines, 24 h
From the text: Data were shown as means ± S.D. of three independent experiments. The asterisks (*p < 0.05, **p < 0.01, ***p < 0.001) indicate a significant difference in the expression of phosphorylation of ERK1 or ERK2 vs total ERK1 or ERK2 in control and erianin-treated group. g The luminescent ADP detection assay was developed to detect the luminescence signal of ATP-to-ADP using the same concentration kinases and substrates described in above kinase assay.
Protein was quantified using a BCA assay kit and then western blotting was conducted.

[14] = system: normal human epidermal melanocytes (NHEM); assay: Cytotoxicity MTT assay; type: cell-based; details: 0, 12.5, 25, 50 nM
Experimental: as §2
(§6) For cytotoxicity test, normal NHDF (5000 cells/well) and NHEM cell line (3000 cells/well) were planted into 96-well plates. For cell proliferation assay, A375 (1500 cells/well), SK-MEL-28 (3000 cells/well), SK-MEL-2 (4000 cells/well), and HCT116 (1500 cells/well) were planted into 96-well plates, determined concentration of drug was added after culture for 24 h. The viability of the cells was detected within 72 h using MTT solution (5 mg/mL). The absorbance at 570/490 nm was quantified by the use of the microplate reader.

[15] = system: normal human dermal fibroblasts (NHDF); assay: Cytotoxicity MTT assay; type: cell-based; details: 0, 12.5, 25, 50 nM
Experimental: as §2, §6

[16] = biological target: T7, Rsk3(h) (Homo sapiens, UniProt Q15349); assay: KinaseProfiler enzyme profiling; type: biochemical; details: 100 nM
T7 construct: purchased Eurofins KinaseProfiler
Outline: as §1

[17] = biological target: T8, Fgr(h) (Homo sapiens, UniProt P09769); assay: KinaseProfiler enzyme profiling; type: biochemical; details: 100 nM
T8 construct: purchased Eurofins KinaseProfiler
Outline: as §1

[18] = biological target: T9, CDK5/p25(h) (Homo sapiens, UniProt Q00535); assay: KinaseProfiler enzyme profiling; type: biochemical; details: 100 nM
T9 construct: purchased Eurofins KinaseProfiler
Outline: as §1

[19] = biological target: T10, ATR/ATRIP(h) (Homo sapiens, UniProt Q13535); assay: KinaseProfiler enzyme profiling; type: biochemical
T10 construct: purchased Eurofins KinaseProfiler
Outline: as §1

[20] = biological target: T11, CDK18/cyclinY(h) (Homo sapiens, UniProt Q07002); assay: KinaseProfiler enzyme profiling; type: biochemical
T11 construct: purchased Eurofins KinaseProfiler
Outline: as §1

T3 sequence (P47809 2-397 limits assumed): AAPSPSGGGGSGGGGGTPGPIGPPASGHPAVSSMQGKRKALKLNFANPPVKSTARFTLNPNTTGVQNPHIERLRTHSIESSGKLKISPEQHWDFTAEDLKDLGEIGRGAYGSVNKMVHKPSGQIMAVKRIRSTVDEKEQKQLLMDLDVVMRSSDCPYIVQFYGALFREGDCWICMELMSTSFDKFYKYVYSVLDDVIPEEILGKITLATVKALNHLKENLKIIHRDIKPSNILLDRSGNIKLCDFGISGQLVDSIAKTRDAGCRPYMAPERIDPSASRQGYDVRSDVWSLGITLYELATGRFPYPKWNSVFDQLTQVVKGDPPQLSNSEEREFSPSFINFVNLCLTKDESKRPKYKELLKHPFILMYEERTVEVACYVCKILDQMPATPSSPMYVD
MEK1, sequence (Q02750 whole entry): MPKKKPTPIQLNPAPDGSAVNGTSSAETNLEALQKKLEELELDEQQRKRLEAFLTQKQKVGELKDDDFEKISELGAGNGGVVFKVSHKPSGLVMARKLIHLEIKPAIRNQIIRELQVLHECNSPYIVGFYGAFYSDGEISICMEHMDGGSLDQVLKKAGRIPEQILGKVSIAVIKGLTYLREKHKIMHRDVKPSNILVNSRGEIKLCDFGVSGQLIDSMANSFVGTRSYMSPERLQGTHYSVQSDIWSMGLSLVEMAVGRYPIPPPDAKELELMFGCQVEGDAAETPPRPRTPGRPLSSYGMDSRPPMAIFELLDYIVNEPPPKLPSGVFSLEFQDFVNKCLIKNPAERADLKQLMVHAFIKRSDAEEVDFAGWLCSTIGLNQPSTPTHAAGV
MEK1 full length, sequence (Q02750 whole entry): as above
T10 sequence (Q13535 whole entry): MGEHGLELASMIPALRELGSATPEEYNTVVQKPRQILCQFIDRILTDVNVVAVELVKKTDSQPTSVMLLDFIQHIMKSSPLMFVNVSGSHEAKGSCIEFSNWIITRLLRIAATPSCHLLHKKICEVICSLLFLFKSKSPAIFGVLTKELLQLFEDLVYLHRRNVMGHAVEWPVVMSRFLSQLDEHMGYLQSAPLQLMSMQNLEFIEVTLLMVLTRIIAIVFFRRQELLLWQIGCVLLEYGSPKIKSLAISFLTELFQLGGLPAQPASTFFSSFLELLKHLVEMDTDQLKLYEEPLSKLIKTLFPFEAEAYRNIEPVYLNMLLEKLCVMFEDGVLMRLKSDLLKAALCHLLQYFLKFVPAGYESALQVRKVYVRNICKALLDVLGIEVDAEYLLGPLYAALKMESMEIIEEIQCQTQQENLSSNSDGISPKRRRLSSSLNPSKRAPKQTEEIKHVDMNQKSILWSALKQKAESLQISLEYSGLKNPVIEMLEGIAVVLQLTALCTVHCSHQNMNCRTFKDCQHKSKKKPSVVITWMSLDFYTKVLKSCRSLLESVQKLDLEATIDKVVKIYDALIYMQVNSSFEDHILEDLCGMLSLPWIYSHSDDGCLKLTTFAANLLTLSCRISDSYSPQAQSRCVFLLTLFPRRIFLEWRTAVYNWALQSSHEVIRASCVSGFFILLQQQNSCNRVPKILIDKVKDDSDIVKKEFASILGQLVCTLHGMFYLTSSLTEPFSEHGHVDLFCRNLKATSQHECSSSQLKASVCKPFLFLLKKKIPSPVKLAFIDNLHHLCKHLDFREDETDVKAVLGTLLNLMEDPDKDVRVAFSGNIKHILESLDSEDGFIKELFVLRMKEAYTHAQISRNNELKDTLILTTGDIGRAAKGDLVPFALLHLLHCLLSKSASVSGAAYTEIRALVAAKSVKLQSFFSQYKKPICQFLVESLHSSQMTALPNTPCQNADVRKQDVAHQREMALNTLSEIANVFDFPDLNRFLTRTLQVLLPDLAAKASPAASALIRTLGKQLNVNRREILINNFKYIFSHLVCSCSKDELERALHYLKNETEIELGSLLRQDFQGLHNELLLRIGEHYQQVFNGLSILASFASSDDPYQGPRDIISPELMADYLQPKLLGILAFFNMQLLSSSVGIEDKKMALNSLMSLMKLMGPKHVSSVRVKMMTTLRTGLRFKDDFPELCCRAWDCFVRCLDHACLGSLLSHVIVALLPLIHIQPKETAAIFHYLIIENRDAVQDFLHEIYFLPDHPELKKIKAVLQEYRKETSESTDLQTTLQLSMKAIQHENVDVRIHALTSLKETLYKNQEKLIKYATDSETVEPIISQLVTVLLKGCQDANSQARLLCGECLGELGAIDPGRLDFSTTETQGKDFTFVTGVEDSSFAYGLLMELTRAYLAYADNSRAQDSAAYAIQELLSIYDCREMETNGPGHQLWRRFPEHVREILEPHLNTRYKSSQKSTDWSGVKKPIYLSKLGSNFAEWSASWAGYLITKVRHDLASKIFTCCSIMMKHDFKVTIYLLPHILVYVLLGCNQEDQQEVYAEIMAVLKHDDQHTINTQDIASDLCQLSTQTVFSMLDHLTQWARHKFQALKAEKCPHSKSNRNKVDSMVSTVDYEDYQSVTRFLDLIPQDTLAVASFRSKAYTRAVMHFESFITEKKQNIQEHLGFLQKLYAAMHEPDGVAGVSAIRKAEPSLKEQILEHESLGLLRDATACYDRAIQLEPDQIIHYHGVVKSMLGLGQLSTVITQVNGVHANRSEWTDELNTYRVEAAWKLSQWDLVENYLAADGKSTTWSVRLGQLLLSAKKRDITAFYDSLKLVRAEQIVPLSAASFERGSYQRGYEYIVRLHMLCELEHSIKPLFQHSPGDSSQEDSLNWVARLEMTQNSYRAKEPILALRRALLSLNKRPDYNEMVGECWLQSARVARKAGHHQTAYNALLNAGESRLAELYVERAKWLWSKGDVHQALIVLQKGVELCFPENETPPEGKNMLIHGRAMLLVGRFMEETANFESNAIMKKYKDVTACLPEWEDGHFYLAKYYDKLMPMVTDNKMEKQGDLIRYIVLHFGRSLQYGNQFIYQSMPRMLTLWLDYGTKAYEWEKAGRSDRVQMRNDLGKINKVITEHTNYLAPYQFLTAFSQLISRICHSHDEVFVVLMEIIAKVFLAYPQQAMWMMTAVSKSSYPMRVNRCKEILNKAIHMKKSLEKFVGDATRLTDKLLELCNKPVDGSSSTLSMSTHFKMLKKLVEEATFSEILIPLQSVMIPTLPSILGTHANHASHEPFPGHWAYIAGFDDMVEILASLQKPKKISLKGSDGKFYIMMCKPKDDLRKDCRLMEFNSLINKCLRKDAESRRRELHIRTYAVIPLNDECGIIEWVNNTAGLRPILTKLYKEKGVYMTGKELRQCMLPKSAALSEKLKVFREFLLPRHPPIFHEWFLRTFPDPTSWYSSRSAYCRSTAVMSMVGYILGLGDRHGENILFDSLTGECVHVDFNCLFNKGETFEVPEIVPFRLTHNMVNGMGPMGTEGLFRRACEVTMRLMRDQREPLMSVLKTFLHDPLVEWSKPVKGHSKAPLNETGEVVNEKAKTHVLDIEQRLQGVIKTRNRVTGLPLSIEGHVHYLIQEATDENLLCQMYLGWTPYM
T10 sequence (Q8WXE1 whole entry partner): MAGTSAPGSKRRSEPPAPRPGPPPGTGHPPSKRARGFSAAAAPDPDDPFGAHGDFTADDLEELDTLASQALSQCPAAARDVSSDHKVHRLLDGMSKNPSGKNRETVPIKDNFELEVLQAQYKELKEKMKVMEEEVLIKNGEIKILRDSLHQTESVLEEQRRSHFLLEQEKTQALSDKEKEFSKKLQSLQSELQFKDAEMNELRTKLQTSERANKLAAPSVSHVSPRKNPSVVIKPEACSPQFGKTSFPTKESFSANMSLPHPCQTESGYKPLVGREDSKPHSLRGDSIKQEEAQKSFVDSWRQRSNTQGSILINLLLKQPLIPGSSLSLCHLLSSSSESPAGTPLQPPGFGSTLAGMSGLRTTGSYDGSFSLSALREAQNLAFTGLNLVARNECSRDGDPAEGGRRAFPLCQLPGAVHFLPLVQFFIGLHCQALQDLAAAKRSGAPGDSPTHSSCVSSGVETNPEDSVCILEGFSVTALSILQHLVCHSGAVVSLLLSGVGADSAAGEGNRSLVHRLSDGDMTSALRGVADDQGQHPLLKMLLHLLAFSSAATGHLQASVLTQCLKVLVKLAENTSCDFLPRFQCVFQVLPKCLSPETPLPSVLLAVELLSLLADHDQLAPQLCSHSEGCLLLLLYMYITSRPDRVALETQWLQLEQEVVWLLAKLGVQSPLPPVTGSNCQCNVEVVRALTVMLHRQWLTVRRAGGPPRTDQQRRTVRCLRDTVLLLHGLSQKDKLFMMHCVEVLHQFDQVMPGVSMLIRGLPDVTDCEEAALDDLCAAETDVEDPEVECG
T2 sequence (Q9Y6M4 whole entry): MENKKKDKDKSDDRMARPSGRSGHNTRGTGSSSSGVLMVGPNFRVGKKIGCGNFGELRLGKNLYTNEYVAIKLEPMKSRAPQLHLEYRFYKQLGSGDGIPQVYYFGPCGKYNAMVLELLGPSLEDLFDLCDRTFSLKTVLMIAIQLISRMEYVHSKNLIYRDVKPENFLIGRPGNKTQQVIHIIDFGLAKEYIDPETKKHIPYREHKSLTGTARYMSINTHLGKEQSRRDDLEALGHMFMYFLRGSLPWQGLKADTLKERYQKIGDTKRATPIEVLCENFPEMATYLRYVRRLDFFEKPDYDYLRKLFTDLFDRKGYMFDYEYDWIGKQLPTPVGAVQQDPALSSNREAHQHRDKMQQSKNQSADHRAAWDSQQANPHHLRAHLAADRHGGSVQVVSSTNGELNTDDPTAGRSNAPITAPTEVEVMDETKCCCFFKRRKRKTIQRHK

Question: For `COc1cc2oc(-c3ccc(O)c(O)c3)cc(=O)c2c(O)c1OC` [Cirsiliol], which activity at 10 µM [1] is on record?
Answer: The activity at 10 µM was 89%.

Question: And the activity at 10 µM [2]?
Answer: Its activity at 10 µM is 104%.

Question: And the activity at 10 µM [3]?
Answer: Its activity at 10 µM is 101%.

Question: And the activity at 10 µM [4]?
Answer: The activity at 10 µM was 97%.

Question: What about the Activity % [5] of the same compound?
Answer: Its Activity % is 95%.

Question: Which results are given for `COc1ccc(CCc2cc(OC)c(OC)c(OC)c2)cc1O` [Erianin]?
Answer: colonies formation [6]: markedly suppress; kinase activity (luminescence signal) [7]: inhibited the kinase activity; kinase activity (luminescence signal) [8]: inhibited the kinase activity; kinase activity (luminescence signal) [9]: inhibited the kinase activity; Kd [10]: 59.3 µM; Kd [11]: 46 µM; Kd [12]: 101 µM; constitutive activation of MAPK signaling pathway [13]: inhibited constitutive activation of MAPK signaling pathway; cytotoxicity [14]: no toxicity; cytotoxicity [15]: no toxicity; activity at 0.1 µM [16]: 108%; activity at 0.1 µM [17]: 91%; activity at 0.1 µM [18]: 102%

Question: What does the source list for `C=C1C(=O)[C@]23[C@H](O)[C@H]1CC[C@H]2[C@@]12CO[C@]3(O)[C@@H](O)[C@@H]1C(C)(C)CC[C@@H]2O` [Oridonin]?
Answer: activity at 10 µM [19]: 76%; activity at 10 µM [20]: 65%
